Test results as given in patent US12011455B2, “Enhancing plasmin activity to prevent soft tissue calcification” (Vanderbilt University, priority 2016, dated 2024).

Tested on: CTX-injured skeletal muscle of mice
Experiment: Cardiotoxin-induced muscle injury model, radiographic/μCT soft tissue calcification and HO
Assay type: in vivo, mouse
Details: Plg+/− mice, 7 DPI, vs control
Method: Cardiotoxin-Induced Muscle Injury Model: Skeletal muscle injury was induced by an intramuscular injection of 40 μL of 10 nM Cardiotoxin (CTX, Accurate Chemical and Scientific Corp; Westbury, NY) in the posterior compartments of the lower extremities of male C57/B6 mice. Briefly, following anesthetization with Isoflurane, CTX was injected into the lateral aspect of the posterior compartment using a 28.5 G, 0.5 cc insulin syringe. The CTX induces massive local myocyte depolarization, leading to myocyte death. However, muscle resident stem cells are unaffected by the CTX, thereby allowing for muscle regeneration following injury. […]
Radiographic Analysis and Quantification of HO: Quantification was performed as described. […] These images underwent post-image standardization and were quantified with the previously validated heterotopic ossification scoring scale. […] A blinded reviewer assessed all scores (a score of 1=0-24%, a score of 2=25%-49%, a score of 3=50%-74%, and a score of 4=>75% of the lower extremity containing radiographically evident HO).
Ex vivo μCT Imaging and Quantification of HO: μCT mages were acquired (μCT40, Scanco Medical AG, Bassersdorf, Switzerland) following specimen harvest of injured hindlimbs at 55 kVp, 145 uA, 200 ms integration, 500 projections per 180° rotation, with a 20 μm isotropic voxel size. […] Mineral volume was then calculated using the Scanco evaluation software.

## Fbg^ASO: Fibrinogen antisense oligonucleotide GCTTTGATCAGTTCTTTGGC; phosphorothioate backbone, 2′ O methoxyethyl wings (all phosphorothioate, sugars by position and methylation of C not given here; 2'-O-methoxyethyl wings)
  soft tissue calcification after CTX injury (μCT/radiographs): failed to prevent soft tissue calcification
Listed as fibrinogen^ASO
  soft tissue calcification after CTX injury (μCT/radiographs): marked soft tissue calcification formation
